Patent US8846096B2, “Nanoparticles and methods of use” (Creighton University, priority 2008, dated 2014)

How the values were obtained:
[1] = Nanoparticle characterization (size, zeta potential, drug loading, entrapment efficiency); format: physicochemical; settings: per drug, HPLC
Description: Briefly, in a typical procedure, a solution of ethylene oxide/propylene oxide block copolymer (Poloxamer-127; 2% [w/v] in double distilled water (ddH2O 10 mL); BASF, Mt. Olive, N.J.) was homogenized with ART drug powder (1 mg of each) in poly-lactic-co-glycolic acid) (PLGA) polymer (molecular weight 110,000-139,000 Daltons (100 mg) in 10 mL methylene chloride) using a probe sonicator (21W for 6 min) (Sonicator XL, Misonix, Farmingdale, N.Y.). The water-in-oil emulsion thus formed was further emulsified into 30 mL of 0.25% (w/v) aqueous solution of polyvinyl alcohol (PVA) as an emulsifier by using sonication as described above for 5 minutes to fowl multiple water-in-oil-in-water emulsion. […] Additionally, 6-hydroxycoumarin (a fluorescent dye; 1% w/v) was added to the polymer solution and one milligram of each ART were fabricated to make fluorescent nanoparticles for flow cytometry. In all formulation procedures, the emulsion was stirred for approximately 18 hours at room temperature to evaporate the organic solvent, methylene chloride, followed by ultracentrifugation (15,000 G for 45 minutes at 4° C., Optima LE-80K, Beckman, Palo Alto, Calif.), rinsed twice with ddH2O to remove PVA, and unentrapped drugs, and then lyophilized (Labconco, Freezone 4.5 at −52° C. and 5.62 torr) for 24 hours to obtain a dry powder.
Nanoparticle characterization: Nanoparticles were evaluated for size by […] as well as scanning electron microscopy (SEM) and surface charge by using a zeta potential analyzer (ZetaPlus, Brookhaven Instruments, Holtsville, N.Y.). For SEM, a sample of nanoparticles was suspended in water (0.2 mg/ml) and an aliquot of suspended particles were placed onto a tip and sputter coated with 2% w/v uranyl acetate, dried, and then visualized by using a JEOL-40A (JEOL Ltd, Sheboygan, Wis.) scanning electron microscope. Additionally, one milligram of formed particles was dissolved in one milliliter methylene chloride in glass tubes and evaporated overnight in quadruplicate. High pressure liquid chromatography (HPLC) mobile phase (200 μL) reconstituted the tubes. The tubes were centrifuged (11,000 rpm, 10 minutes, 4° C.) and aliquots were injected into the HPLC equipment to determine ART drug loading and entrapment efficiency.
Standards were analyzed in triplicate and averaged.

PBMCs = assay: ART release from nanoparticles / free drug: intracellular drug levels in PBMCs by HPLC
Description: High pressure liquid chromatography (HPLC): HPLC was performed using a previously reported method (Weller et al., J. Chromatogr. B Analyt. Technol. Biomed. Life Sci., 2007, 848(2):369-73). Briefly, the equipment included a pump (LC-10ATvp), system controller (SIL-10ADvp); degasser unit (DGU-14A), refrigerated auto-sampler (SIL-10ADvp); and a UV-Vis detector (SPD-10ADvp) and a column heater (set at 35° C.) (all from Shimadzu Corporation, Columbia, Md.). Samples were run through a C18 pre-column and a Jupiter C18 reverse-phase [150×3.9 mm (I.D.)] with […] particle size packing (Phenomenex, Torrance, Calif.). The mobile phase was 25 mM KHPO4 (pH 4.9) and acetonitrile (40:60). The mobile phase was filtered and degassed prior to use. Flow rate was set at 0.9 mL/min and the detector was set at 212 nm. […] Peak area from the samples and standards were integrated using EZ-Start chromatography software (Shimadzu) on a Dell computer. Injection volume was 20 μL and all samples were analyzed in duplicate and averaged. Standards were analyzed in triplicate and averaged.
Human monocyte isolation and cultivation: Human PBMCs were obtained from whole blood collection of HIV-1, -2 and hepatitis B seronegative donor and purified using CPT Vacutainer tubes (BD and Co., Sparks, Md.) according to the manufacturer instructions. […] (1×10^6 cells/mL) were cultured in DMEM supplemented with 10% heat-inactivated pooled human serum, 1% glutamine, 1% penicillin-streptomycin, and 10 µg/mL ciprofloxacin (Sigma Chemical Co) then filter sterilized. The PBMCs were used within 2 hours after blood collection. Media was one-half exchanged with fresh media every 2-3 days. These cells were used for ART drug release experiments from nanoparticles as determined by HPLC. Human PBMCs at 5×10^6 were cultured in DMEM supplemented with 10% heat-inactivated pooled human serum, 1% glutamine, 1% penicillin-streptomycin, and 10 µg/mL ciprofloxacin (Sigma Chemical Co), and 1000 U/mL highly purified recombinant human macrophage colony stimulating factor (MCSF; R&D Systems, Inc; Minneapolis, Minn.) for seven days. Media was one-half exchanged very 2-3 days. Monocyte-derived macrophages (MDM) were used for TEM and fluorescent imaging.
ART Release from Nanoparticles: Antiretroviral nanoparticles (100 μg) were added to PBMC cell cultures. Flasks containing PBMCs and ART nanoparticles were placed in a 37° C., 5% CO2 incubator. At the appointed time, media in the flask was placed in a sterile 15 mL conical tube and centrifuged (400×G, 24° C. for 10 minutes). Cells (250 μL) were removed from the tube and put into a microfuge tube for HPLC analysis. […] Cell samples were placed in microfuge tubes, 250 μL of 100% methanol was added to lyse the cells then the cells were frozen (−20° C.) until assayed for ART drugs using HPLC. When HPLC was performed, microfuge tubes were thawed, centrifuged at 15,000 rpm at 4 C for 10 minutes and an aliquot of supernatant was placed into autosampler vials with glass insert. Free drugs (25 μg/mL of each ART drug) was dissolved in HPLC-grade ethanol, incubated with the PBMCs and cells were removed at 2, 4, 8, 24, and 48 hours, lysed with methanol, centrifuged, and assayed by HPLC as controls of these experiments.

[2] = Serum pharmacokinetics after a single intraperitoneal dose in mice; settings: for MRT: MRT (mean residence time within the serum)
Description: (§1) The particles were weighed, reconstituted with PBS and 500 μg was injected intraperitoneally (IP) into male BALB/c mice. At specific times, (free: 0.08, 0.167, 0.25, 0.33, 1, 2 and 3 days; antiretroviral nanoparticles: 0.167, 0.33, 1, 2, 4, 7, 14, 21, 28, and 35 days) mice (n=3/time point) were euthanized and selected organs and serum were harvested for antiretroviral drug levels. Results are presented as mean±SEM.
(§2) The nanoparticle powder was weighed and 500 μg was dissolved in phosphate-buffered saline (PBS) and injected intraperitoneally into each BALB/c male mice (25-28 g). […] At specified times points, mice (n=3-4) were euthanized using a CO2 chamber and organs (spleen, liver, kidney, brain, testes) and blood (100-150 μL) were removed from each of the mice. Blood was allowed to clot, centrifuged (1000×G) and serum was harvested. The organs were harvested and immediately placed on ice. At weekly intervals, an aliquot of the organ tissue was weighed and 500 μL of 100% methanol was added to tissue and serum samples. The tissue was homogenized using a pellet homogenizer, equilibrated at 4° C. for 30 minutes, and then centrifuged (11,400 RPM×15 minutes at 4° C.). An aliquot of the supernatant (20 μL/injection) was added to autosampler vials with glass inserts. […] Duplicate samples from tissues and serum were assayed and standards were assayed in triplicate. The organ/serum samples were compared to the standard curve (45-1000 ng/ml) that was performed on that day using peak area and EZ-Chrom software (Shimadzu, Corp.).
Data is presented as mean±SEM where appropriate. Serum concentration-time curves were used to determine pharmacokinetic parameters. Elimination rate constant was determined using nonlinear regression of the terminal phase of the serum concentration-time curve. Apparent volume of distribution, total body clearance, mean residence time and area under the serum concentration-time curve to the last concentration obtained (AUC0-last) were determined by non-compartmental modeling.

[3] = Drug levels in organs and serum of mice after a single intraperitoneal dose; settings: male, BALB/c, mouse, liver, ip, 500 μg
Description: as §1
as §2, with “The organ/serum samples were compared to the standard curve (45-1000 ng/ml) that was performed on that day using peak area and EZ-Chrom software (Shimadzu, Corp.).” left out

[4] = PLGA NPs 500 μg IP, mice, listed as E
[5] = male, BALB/c, mouse, in vivo, ip, 500 ug
[6] = male, BALB/c, mouse, in vivo, ip, 500 ug, Elimination half-life, drug given as PLGA nanoparticles, averaging
[7] = male, BALB/c, mouse, in vivo, ip, 500 ug, Free ART
[8] = male, BALB/c, mouse, in vivo, ip, 500 ug, NP ART
[9] = male, BALB/c, mouse, in vivo, ip, 500 ug, T1/2 (elimination half-life), Free ART
[10] = male, BALB/c, mouse, in vivo, ip, 500 ug, T1/2 (elimination half-life), NP ART

## O=C1Nc2ccc(Cl)cc2[C@@](C#CC2CC2)(C(F)(F)F)O1 [EFV, efavirenz]
[1]
  Antiretroviral drug loading of the nanoparticles: 10.8%
  Entrapment efficiency: 86%
PBMCs; PLGA NPs (100 μg) incubated with PBMCs
  Intracellular peak level, drug given as nanoparticles: 10.6+2.7 μg
PBMCs; PLGA NPs incubated with PBMCs
  Time of intracellular peak concentration, drug given as nanoparticles: 24 h
PBMCs; PLGA NPs incubated with PBMCs (summary of Example 1)
  Time of intracellular peak level, drug given as nanoparticles: 4 days
PBMCs; free drug 25 μg/mL in ethanol, PBMCs, at 8 hours
  Intracellular peak concentration, free drug: 3.1+0.02 μg
PBMCs; free drug, PBMCs
  Time of intracellular peak concentration, free drug: 8 h
PBMCs; human, 25 μg/mL
  Time to elimination of free drug from PBMCs: ≤ 48 h
[2]; PLGA NPs 500 μg IP single dose, mice
  Peak serum level, drug given as PLGA nanoparticles: 853.2 ± 64.1 ng/mL
[2]; PLGA NPs 500 μg IP, mice
  AUC (area under the serum concentration-time curve), NP ART: E: 5716.9 ± 3177.7 ng-day/ml
  ClT (total body clearance), NPs: 4.1 ± 3.06 L/day/kg
  Time of peak serum level, drug given as PLGA nanoparticles: 0.25 h
  Vd (volume of distribution), NP ART: 11.38 ± 10.72 L/kg
[2]; [4]
  MRT (mean residence time within the serum), NP ART: E: 10.3 ± 4.24 days
  Vd (volume of distribution), NP ART: E: 11.4 ± 10.7 L/kg
[2]; free drugs 500 μg IP single dose, mice, 4 hours post-injection
  Peak serum level, free drug: 3.5 ± 1.9 µg/L
[2]; free drugs 500 μg IP, mice
  AUC (area under the serum concentration-time curve, AUC0-last), Free ART: 646 ± 640 ng·days/mL
  Time of peak serum level, free drug: 4 h
  Vd (volume of distribution), Free ART: 39.3 ± 26.6 L/kg
[2]; free drugs 500 μg IP, mice, serum, listed as E
  T1/2 (elimination half-life), Free ART: E: 11.76 ± 2.8 hrs
[2]; [5]
  AUC (area under the serum concentration-time curve, AUC0-last), Free ART: E: 645. 9 ± 640.2 ng-day/ml
[2]; male, BALB/c, mouse, serum, ip, 500 ug, Free ART, free drugs 500 μg IP, mice
  MRT: 13.7 h
[2]; male, BALB/c, mouse, serum, ip, 500 ug, NP ART, PLGA NPs 500 μg IP, mice
  MRT: 248 h
[2]; male, BALB/c, mouse, serum, ip, 500 ug, T1/2 (elimination half-life), Free ART, free drugs 500 μg IP, mice
  half-life: 708 ± 168 min
[2]; male, BALB/c, mouse, serum, ip, 500 ug, T1/2 (elimination half-life), NP ART, PLGA NPs 500 μg IP, mice
  half-life: 2130 min
[3]
  concentration at 28 day: 1020 ± 440 ng/g

## Cc1cccc(C)c1OCC(=O)N[C@@H](Cc1ccccc1)[C@@H](O)C[C@H](Cc1ccccc1)NC(=O)[C@H](C(C)C)N1CCCNC1=O [LPV, lopinavir]
[1]
  Antiretroviral drug loading of the nanoparticles: 5.2%
PBMCs; human, 25 μg/mL
  Time of intracellular peak concentration, free drug: 8 h
  Time to elimination of free drug from PBMCs: ≤ 48 h
PBMCs; human, 100 μg
  Intracellular peak level, drug given as nanoparticles: 4.1+2.0 μg
  Time of intracellular peak concentration, drug given as nanoparticles: 96 h
  Time of intracellular peak level, drug given as nanoparticles: 4 days
[2]; [5]
  Vd (volume of distribution), Free ART: 41.6 ± 31.7 L/kg
  Vd (volume of distribution), NP ART: 118.6 ± 165.9 L/kg
[2]; [6]
  half-life: > 101000 min
[2]; [7]
  MRT: 14.4 h
[2]; [8]
  MRT: 5490 h
[2]; [9]
  half-life: 906 ± 384 min
[2]; [10]
  half-life: 38700 min
[2]; mouse, in vivo, ip, 500 ug
  AUC (area under the serum concentration-time curve), NP ART: L: 3329.8 ± 1785.3 ng-day/ml

## CC(C)c1nc(CN(C)C(=O)N[C@H](C(=O)N[C@@H](Cc2ccccc2)C[C@H](O)[C@H](Cc2ccccc2)NC(=O)OCc2cncs2)C(C)C)cs1 [RTV, ritonavir]
[1]
  Antiretroviral drug loading of the nanoparticles: 4.9%
PBMCs; human, 25 μg/mL
  Time of intracellular peak concentration, free drug: 8 h
  Time to elimination of free drug from PBMCs: ≤ 48 h
PBMCs; human, 100 μg
  Intracellular peak level, drug given as nanoparticles: 2.5+1.1 μg
  Time of intracellular peak concentration, drug given as nanoparticles: 96 h
  Time of intracellular peak level, drug given as nanoparticles: 4 days
[2]; [5]
  Vd (volume of distribution), Free ART: 9.7 ± 4.4 L/kg
  Vd (volume of distribution), NP ART: 549.9 ± 360 L/kg
[2]; [6]
  half-life: > 101000 min
[2]; [7]
  MRT: 4.8 h
[2]; [8]
  MRT: 775 h
[2]; [9]
  half-life: 576 ± 168 min
[2]; [10]
  half-life: 330000 min
[2]; mouse, in vivo, ip, 500 ug
  AUC (area under the serum concentration-time curve), NP ART: R: 7020.5 ± 11428.7 ng-day/ml
